Patent US20230391841A1, “MACROCYCLIC PEPTIDES” (Herantis Pharma OYJ, priority 2019, published 2023)
Bridge positions count the residues as written; N and C are the ends. Peptide text beside a SMILES is read from it.

Legend:
[1] = system: human hepatocytes; assay: In vitro metabolic stability in human hepatocytes; assay type: in vitro ADME; settings: 1 μM, 37° C., up to 60 min
Protocol: The linear or macrocyclic compounds 1-8, 11-14 and 23-26 (SEQ ID NOs: 1-8, 11-14 and 23-26) were incubated in concentration 1 μM with pooled cryopreserved human hepatocytes (mixed gender; 400 pl, 1.0 million viable cells/ml) for different time points (0, 20, 40 or 60 min) at 37° C. The cell density and viability were determined by trypan blue is exclusion method. The incubation was terminated by acetonitrile. The collected samples were centrifuged for 20 min at 2272×g and analyzed. The samples were analyzed by UPLC/PDA with high resolution mass spectrometry (QE-Orbitrap-MS on DDI mode) to monitor disappearance of the compound. Verapramil 1 μM was used as a disappearance rate control. The analytical method was optimized by using the parent compounds for optimum chromatographic properties (peak shape and retention) and mass spectrometric ionization. The Ion chromatograms were extracted from the total ion chromatograms using calculated monoisotopic accurate masses with 5 mDa window. Disappearance was based on LC/MS peak areas, marking 0 min as 100%. The first-order rate constants k (min-1) of the metabolism were obtained from the slope of time versus logarithm (% of remaining compound) plot using Excel software. The in vitro half-life (t1/2) of study compound is defined as: t1/2In2/k. Calculated half-life is based on compound disappearance in human liver hepatocytes.

[2] = system: rat hepatocytes; assay: In vitro metabolic stability in rat hepatocytes; assay type: in vitro ADME; settings: 1 μM, 37° C., up to 60 min
Protocol: The linear or macrocyclic compounds 1-14 and 23-26 (SEQ ID NOs: […]) were incubated in concentration 1 μM with pooled cryopreserved rat hepatocytes (Sprague-Dawley, male; 400 pl, 1.0 million viable cells/ml for compounds 1-8, 11-12 and 23-26 or 100 μl, 0.1 million viable cells/ml for compounds 9-10 and 13-14) for different time points (0, 10, 20, 40 or 60 min) at 37° C. The cell density and viability were determined by trypan blue exclusion method. The incubation was terminated by acetonitrile. The collected samples were centrifuged for 20 min at 2272×g and analyzed. The samples were analyzed is by UHPLC/PDA with high resolution mass spectrometry (QE-Orbitrap-MS on DDI mode) (compounds 1-8, 11-12 and 23-26) or HHPLC-ToF mass spectrometry (for compounds 9-and 13-14) to monitor disappearance of the compound. Verapramil 1 μM was used as a disappearance rate control. The analytical method was optimized by using the parent compounds for optimum chromatographic properties (peak shape and retention) and mass spectrometric ionization. The Ion chromatograms were extracted from the total ion chromatograms using calculated monoisotopic accurate masses with 5 mDa window. Disappearance was based on LC/MS peak areas, marking 0 min as 100%. The first-order rate constants k (min-1) of the metabolism were obtained from the slope of time versus logarithm (% of remaining compound) plot using Excel software. The in vitro half-life (t1/2) of study compound is defined as: t1/2In2/k. Calculated half-life is based on compound disappearance in rat liver hepatocytes.

[3] = system: dopaminergic TH-positive neurons injured with MPP+; assay: Neuroprotective effect on dopaminergic TH-positive neurons injured with MPP+ (primary mesencephalic culture); assay type: cell-based, rat; settings: MPP+ injured TH-positive neurons
Protocol: Neuroprotective effects of compounds 1-26 (SEQ ID NO: 1-26) were tested in an in vitro model in which primary cultures of rat embryonic mesencephalic neurons were stressed with MPP+ , the active metabolite of neurotoxin 1-methyl-4-phenyl-1,2,3,6-tetrahydropyridine (MPTP). MPP+ kills dopaminergic (TH-positive) neurons via a variety of toxic mechanisms, including mitochondrial dysfunction, generation of peroxynitrite, oxidative stress, ER stress and induction of apoptosis.
Culture of mesencephalic neurons. Rat dopaminergic neurons were cultured as described by Visanji et al., 2008. Briefly, the midbrains obtained from 15-day-old rat embryos (Janvier, France) were dissected, and the ventral portion of the mesencephalic flexure, a region of the developing brain rich in dopaminergic neurons, was used for the cell preparations. The midbrain cells were dissociated by trypsinization for 20 min at 37° C. (solution at a final concentration of 0.05% trypsin and 0.02% EDTA). The reaction was stopped by adding Dulbecco's modified Eagle's medium (DMEM) containing DNAase I grade II (0.5 mg/mL) and 10% of fetal calf serum (FCS). Cells were then mechanically dissociated by 3 passages through a 10 ml pipette. Cells were then centrifuged at 180×g for 10 min at +4° C. on a layer of BSA (3.5%) in L15 medium. The cell pellets were re-suspended in a defined culture serum-free medium consisting of Neurobasal (Invitrogen) supplemented with B27 (2%), L-glutamine (2 mM) and 2% of PS solution and 1Ong/ml of Brain-derived neurotrophic factor (BDNF) and 1 ng/mL of Glial-Derived Neurotrophic Factor (GDNF). Viable cells were counted in a Neubauer cytometer using the trypan blue exclusion test. The cells were seeded at a density of 40 000 cells/well in 96 well-plates (pre-coated with poly-L-lysine) and maintained in a humidified incubator at 37° C. in 5% CO2/95% air atmosphere. Half of the medium was changed every 2 days with fresh medium. On 96-wells plates, only 60 wells are used. To avoid any edge effect, the first and last lines and columns were not used for culture and were filled with sterile water.
CDNF as well as linear and macrocyclic compounds […] (SEQ ID NOs: 1-26) were tested. On day 6 of culture, the compounds were dissolved in culture medium and then pre-is incubated with mesencephalic neurons for 4 hours before the MPP+ application. Four hours after the preincubation of the compounds, MPP+ was added to a final concentration of 4 pM, diluted in control medium still in presence of compounds for 48 h.
48 h after intoxication, the cells were fixed by a solution of 4% paraformaldehyde in PBS, pH 7.3 for 20 min at room temperature. The cells were washed twice in PBS, and then permeabilized and non-specific sites were blocked with a solution of PBS containing 0.1% of saponin and 1% FCS for 15 min at room temperature. Next, the cells were incubated with (a) a monoclonal antibody anti-Tyrosine Hydroxylase (TH) produced in mouse at dilution of 1:10000 and with (b) a polyclonal antibody anti-alpha-synuclein (α-syn) antibody produced in rabbit at dilution of 1:400 in PBS containing 1% FCS, 0.1% saponin, for 2 h at room temperature.
48 h after intoxication, the cell culture supernatant was removed, and the cells fixed by a solution of 4% paraformaldehyde in PBS, pH 7.3 for 20 min at room temperature. The cells were washed twice in PBS, and then permeabilized and non-specific sites were blocked with a solution of PBS containing 0.1% of saponin and 1% FCS for 15 min at room temperature. Then, the cells were incubated with a) a monoclonal Anti-Tyrosine Hydroxylase (TH) antibody produced in mouse at dilution of 1:10000 in PBS containing 1% FCS, 0.1% saponin, for 2 hours at room temperature, and b) a polyclonal anti-postsynaptic density protein-95 (PSD-95) antibody produced in rabbit at dilution of 1:200 in PBS containing 1% FCS, 0.1% saponin, for 2 h at room temperature. This antibody stains specifically synapses. […]

| SMILES | stability in human hepatocytes as compared to linear counterpart [1] | stability in rat hepatocytes as compared to linear counterpart [2] | potency of macrocyclic peptide versus its linear counterpart [3] |
| --- | --- | --- | --- |
| CC[C@H](C)[C@@H]1NC(=O)[C@H](CCC(N)=O)NC(=O)[C@H](CCCCN)NC(=O)[C@H](CC(C)C)NC(=O)[C@H](CCC(=O)O)NC(=O)[C@H](C)NC(=O)[C@H](C(C)C)NC(=O)[C@H](CCCNC(=N)N)NC(=O)[C@H](CCSC)NC(=O)[C@H](CCCCN)NC(=O)[C@H](CCCNC(=N)N)NC(=O)[C@H](CC(C)C)NC(=O)[C@H](CC(=O)O)NC(=O)[C@H](C(C)C)NC(=O)[C@H](CCC(=O)O)NC(=O)[C@H](C)NC(=O)[C@@H]2CSSC[C@H](NC(=O)[C@H](CCC(=O)O)NC(=O)[C@H](CCC(=O)O)NC(=O)CNC(=O)[C@H](Cc3c[nH]c4ccccc34)NC(=O)[C@H](CO)NC(=O)[C@H](Cc3c[nH]cn3)NC(=O)[C@H](CC(C)C)NC1=O)C(=O)N[C@@H](CCCNC(=N)N)C(=O)N[C@@H](C)C(=O)N2 [Compound 2] (cyclo(ACAEVDLRKMRVAELKQILHSWGEECR); disulfide 2-26) | significantly improved stability | significantly improved stability | comparable |
| CC[C@H](C)[C@@H]1NC(=O)[C@H](CCC(N)=O)NC(=O)[C@H](CCCCN)NC(=O)[C@H](CC(C)C)NC(=O)[C@H](CCC(=O)O)NC(=O)[C@H](C)NC(=O)[C@H](C(C)C)NC(=O)[C@H](CCCNC(=N)N)NC(=O)[C@H](CCSC)NC(=O)[C@H](CCCCN)NC(=O)[C@H](CCC(=O)O)NC(=O)[C@H](C)NC(=O)[C@@H]2CSSC[C@H](NC(=O)[C@H](CCC(=O)O)NC(=O)[C@H](CCC(=O)O)NC(=O)CNC(=O)[C@H](Cc3c[nH]c4ccccc34)NC(=O)[C@H](CO)NC(=O)[C@H](Cc3c[nH]cn3)NC(=O)[C@H](CC(C)C)NC1=O)C(=O)N[C@@H](CCCNC(=N)N)C(=O)N[C@@H](C)C(=O)N2 [Compound 6] (cyclo(ACAEKMRVAELKQILHSWGEECR); disulfide 2-22) | significantly improved stability | significantly improved stability | comparable |
| CC[C@H](C)[C@@H]1NC(=O)[C@H](CCCCN)NC(=O)[C@H](CCCCN)NC(=O)[C@H](CC(C)C)NC(=O)[C@H](CCC(=O)O)NC(=O)[C@H](CCCCN)NC(=O)[C@H](C(C)C)NC(=O)[C@H](CCCNC(=N)N)NC(=O)[C@H](CC(C)C)NC(=O)[C@H](CCCCN)NC(=O)[C@H](CCC(=O)O)NC(=O)[C@H](C)NC(=O)[C@@H]2CSSC[C@H](NC(=O)[C@H]([C@@H](C)O)NC(=O)[C@H](CCC(=O)O)NC(=O)CNC(=O)[C@H](Cc3c[nH]c4ccccc34)NC(=O)[C@H](CC(=O)O)NC(=O)[C@H](CC(=O)O)NC(=O)[C@H](CC(C)C)NC1=O)C(=O)N[C@@H](CCCCN)C(=O)NCC(=O)N2 [Compound 8] (cyclo(AEKLRVKELKKILDDWGETCKGC); disulfide 20-23) | – | significantly improved stability | comparable |
| CC[C@H](C)[C@@H]1NC(=O)[C@H](CO)NC(=O)[C@H](CCCCN)NC(=O)[C@H](CCC(=O)O)NC(=O)[C@H](C)NC(=O)[C@@H]2CSSC[C@H](NC(=O)[C@H]([C@@H](C)O)NC(=O)[C@H](CCC(=O)O)NC(=O)CNC(=O)[C@H](Cc3c[nH]c4ccccc34)NC(=O)[C@H](CC(=O)O)NC(=O)[C@H](CC(=O)O)NC(=O)[C@H](CC(C)C)NC1=O)C(=O)N[C@@H](CCCCN)C(=O)NCC(=O)N2 [Compound 10, KSILDDWGETCKGCAE] (cyclo(AEKSILDDWGETCKGC); disulfide 13-16) | – | significantly improved stability | comparable |
| C[C@@H]1NC(=O)[C@@H]2CSSC[C@H](NC(=O)[C@H](CCC(=O)O)NC(=O)[C@H](CCC(=O)O)NC(=O)CNC(=O)[C@H](Cc3c[nH]c4ccccc34)NC(=O)[C@H]([C@@H](C)O)NC(=O)[C@H](CCCCN)NC(=O)[C@H](CCC(=O)O)NC1=O)C(=O)N[C@@H](CCCNC(=N)N)C(=O)N[C@@H](C)C(=O)N2 [Compound 12, WGEECRACAEKT] (cyclo(ACAEKTWGEECR); disulfide 2-11) | significantly improved stability | significantly improved stability | comparable |
| C[C@@H]1NC(=O)[C@@H]2CSSC[C@H](NC(=O)[C@H]([C@@H](C)O)NC(=O)[C@H](CCC(=O)O)NC(=O)CNC(=O)[C@H](Cc3c[nH]c4ccccc34)NC(=O)[C@H](CO)NC(=O)[C@H](CCCCN)NC(=O)[C@H](CCC(=O)O)NC1=O)C(=O)N[C@@H](CCCCN)C(=O)NCC(=O)N2 [Compound 14, WGETCKGCAEKS] (cyclo(AEKSWGETCKGC); disulfide 9-12) | significantly improved stability | significantly improved stability | comparable |
| C[C@@H]1NC(=O)CNC(=O)[C@H](CCCNC(=N)N)NC(=O)[C@@H]2CSSC[C@H](NC1=O)C(=O)N[C@@H](C)C(=O)N[C@@H](CCC(=O)O)C(=O)N[C@@H](CCCCN)C(=O)N[C@@H]([C@@H](C)O)C(=O)N[C@@H](Cc1c[nH]c3ccccc13)C(=O)NCC(=O)N[C@@H](CCC(=O)O)C(=O)N[C@@H](CCC(=O)O)C(=O)N2 [Compound 24, WGEECRGACAEKT] (cyclo(ACAEKTWGEECRG); disulfide 2-11) | significantly improved stability | significantly improved stability | comparable |
